Patent US20040208864A1, “Methods of improving health-related quality of life in individuals with systemic lupus erythematosus” (priority 2002, published 2004)
“And” between values parts separate entries of the source, which are not always exact repeats. Identical values can stand only once. “Also recorded” adds a separate entry of the source.

Test system: SLE patients
Experiment: SF-36 health-related quality of life, Phase II/III (90-05) trial of LJP 394 vs placebo
Assay type: in vivo, human
Conditions: for Longitudinal Role Emotional and MCS scores vs placebo: available data only
Description: Patients were excluded if they had evidence of a renal flare within three months of screening; were receiving prednisone or prednisone equivalent >20 mg/day, azathioprine >200 mg/day, methotrexate >25 mg/wk and/or cyclophosphamide at any dose within three months of screening; or a serum creatinine level ≧2.5 mg/dL. The study was conducted in the US and Europe according to Good Clinical Practices and all patients provided voluntary informed consent.
A pharmacodynamic assay has been developed to measure the binding affinity of patients' anti-dsDNA antibodies to LJP 394 (Sem D S, et al. (1999) Arch Biochem Biophys 372:62-8; McNeeley Pa., et al. (2001) Lupus 10:526-532). The assay measures the binding of the total serum immunoglobulin G [IgG] fraction to the dsDNA epitope on LJP 394. Binding of IgG to the LJP 394 epitope is measured using surface plasmon resonance and the concentration required to reach half maximal binding is determined. This concentration defines the apparent Kd′ of the binding interaction and reflects the titer-weighted average affinity of the patient's IgG fraction for the LJP 394 epitope. Using this assay, patients were segregated into “high affinity” and “low affinity” subgroups. The segregation value was selected by comparing the affinity measured before exposure to LJP 394 with that following 16 weekly treatments with LJP 394 100 mg or placebo. The high-affinity (HA) population was defined as those patients with antibody binding affinities [Kd′]≦0.8 mg/mL pre-treatment.
In this double-blind, randomized controlled, multicenter trial, intravenously administered LJP 394 was compared with placebo in SLE patients with prior renal involvement. Patients were randomized to receive LJP 394 100 mg as a 2 ml bolus intravenous injection on a weekly basis or placebo for 76 weeks. After initiation of the trial, the protocol was amended to include 8 week off treatment periods alternating with 12 weekly treatments with 50 mg (1 ml bolus injection) LJP 394 or placebo. The first 16 weeks, when patients received 100 mg LJP 394 or placebo weekly, was considered the ‘induction period’, followed by ‘maintenance,’ when patients alternated 8 off and 12 weeks on treatment. The 20-week cycles were to be repeated three times for a total of 60 weeks.
The primary endpoint was the time to a documented renal flare, defined as reproducible increases from baseline in 24-hr proteinuria or serum creatinine >20% or at least 0.3 mg/dL, whichever was greater, accompanied by proteinuria, hematuria and/or red cell casts; or new onset or reproducible increase in hematuria accompanied by either an increase in 24-hr proteinuria or new red cell casts. Secondary outcome measures included the number of renal flares, time to institution of therapy with high dose corticosteroids (HDCC) and/or cyclophosphamide, incidence of treatment with HDCC and/or cyclophosphamide, and number of major SLE flares. HDCC was defined as an increase in oral, intravenous or intramuscular prednisone (or prednisone equivalent) greater than or equal to 15 mg per day from baseline to a dose greater than 20 mg per day for more than two days or any dose exceeding 200 mg in a single day. Topical, intra-articular, intra-lesional, or intra-ocular corticosteroid administration was excluded.
As a secondary objective, the SF-36 was included in the protocol for analysis, on an exploratory basis, to evaluate and interpret changes in health-related quality of life with active treatment compared with placebo. An additional secondary objective was to evaluate changes in health-related quality of life before and after a documented renal flare, with or without prior treatment with HDCC. The SF-36 was administered at baseline and weeks 16, 24, 36, 44, 56, 64, 76, or at early treatment withdrawal. All patients with a baseline and at least one post treatment health-related quality of life assessment were included in the analyses. […]

[1] = High Affinity, no flares, induction phase
[2] = High affinity population, baseline (pre-treatment)
[3] = High affinity population, baseline to Week 16
[4] = ITT population, baseline (pre-treatment)
[5] = ITT population, baseline to Week 16
[6] = ITT, no flares, induction phase
[7] = Phase II/III, before renal flare
[8] = active treatment, pre vs post renal flare
[9] = patients with documented renal flare (n=37), before flare

Q: For “abetimus sodium (sense GTGTGTGTGTGTGTGTGTGT; antisense CACACACACACACACACACA; sense: DNA, backbone not given here; antisense: DNA, backbone and methylation of C not given here; four deoxynucleotide duplexes bound to triethylene glycol valency platform) [LJP 394, tetravalent conjugate: four (CA)10.(TG)10 double-stranded 20-mer oligonucleotides on a triethylene glycol based valency platform]”, which “Difference in Role Emotional change scores between treatment groups” value [1] is on record?
A: 13.2

Q: And the “Difference in Social Functioning change scores between treatment groups” value [1]?
A: 5.5

Q: And the “SF-36 MCS Baseline Mean” value [2]?
A: 48.21

Q: What about the “SF-36 PCS Baseline Mean” value [2] of the same substance?
A: 41.13

Q: What about the “Difference between MCS change scores, active vs placebo” value [3] of the same substance?
A: 2.2 points

Q: What about the “Difference in Role Emotional change scores, active vs placebo” value [3] of the same substance?
A: 15.9 points

Q: And the “Difference in Role Physical change scores, active vs placebo” value [3]?
A: 8.5 points

Q: And the “Difference in Social Functioning change scores, active vs placebo” value [3]?
A: 5.0

Q: And the “Magnitude of differences between active and placebo on Role Physical” value [3]?
A: 4.4 points

Q: And the “Mean change in SF-36 Social Functioning score” value [3]?
A: 4.9 points

Q: And the “SF-36 MCS Mean % Change” value [3]?
A: 6.10%

Q: What about the “SF-36 MCS Mean Change” value [3] of the same substance?
A: 1.49

Q: What about the “SF-36 PCS Mean % Change” value [3] of the same substance?
A: 7.17%

Q: What about the “SF-36 PCS Mean Change” value [3] of the same substance?
A: 1.88

Q: And the “Patients reporting improvements in Role Emotional scores greater than the MCID” value (ITT population, Week 16)?
A: 24.2%

Q: And the “Baseline Role Emotional score” value [4]?
A: 69.1

Q: What about the “SF-36 MCS Baseline Mean” value [4] of the same substance?
A: 48.9 and 48.91

Q: And the “SF-36 PCS Baseline Mean” value [4]?
A: 41.0 and 41.03

Q: And the “Difference in MCS change, active vs placebo” value [5]?
A: 2.1

Q: And the “Difference in Role Emotional change scores, active vs placebo” value [5]?
A: 15.8 points

Q: And the “Difference in Role Physical change scores, active vs placebo” value [5]?
A: 8.9 points

Q: And the “SF-36 MCS Mean % Change” value [5]?
A: 5.53%

Q: What about the “SF-36 MCS Mean Change” value [5] of the same substance?
A: 1.29

Q: What about the “SF-36 PCS Mean % Change” value [5] of the same substance?
A: 6.70%

Q: What about the “SF-36 PCS Mean Change” value [5] of the same substance?
A: 1.76

Q: And the “Difference in Social Functioning change scores between treatment groups” value (ITT, induction phase (16 weeks))?
A: 4.7

Q: And the “Difference in Role Emotional change scores between treatment groups” value (ITT, no HDCC, induction phase)?
A: 9.7

Q: And the “Difference in Social Functioning change scores between treatment groups” value (ITT, no HDCC, induction phase)?
A: 5.9

Q: And the “Difference in Role Emotional change scores between treatment groups” value [6]?
A: 12.3

Q: What about the “Difference in Social Functioning change scores between treatment groups” value [6] of the same substance?
A: 5.0

Q: What about the “Mean SF-36 domain scores after renal flare compared with placebo” value (Phase II/III, after renal flare) of the same substance?
A: remained better than placebo patients; also recorded: higher for LJP394-treated patients in all domains

Q: And the “Mean SF-36 Pain domain score before renal flare” value [7]?
A: 60.13

Q: What about the “Mean SF-36 domain scores before renal flare compared with placebo” value [7] of the same substance?
A: better scores than placebo in all domains except pain

Q: What about the “Mean SF-36 domain scores before renal flare compared with placebo” value (Phase II/III, before renal flare, listed as LJP394) of the same substance?
A: higher for LJP394-treated patients in all domains except pain

Q: What about the “SF-36 domain score changes pre/post renal flare compared with placebo” value (Phase II/III, pre vs post renal flare) of the same substance?
A: stabilization or improvement in all but one domain

Q: What about the “SF-36 domain score changes pre/post renal flare compared with placebo” value (Phase II/III, pre vs post renal flare, listed as LJP394) of the same substance?
A: all eight domains were more favorable; also recorded: all 8 domains were more favorable

Q: And the “Change in Bodily Pain domain score before to after documented renal flare” value [8]?
A: 12.3 points

Q: What about the “Change in Role Emotional domain score before to after documented renal flare” value [8] of the same substance?
A: 2.1

Q: And the “Change in Social Functioning domain score before to after documented renal flare” value [8]?
A: 2.3

Q: What about the “Change in Vitality domain score before to after documented renal flare” value [8] of the same substance?
A: 4.1

Q: What about the “Longitudinal Role Emotional and MCS scores vs placebo” value (after the 16 week induction phase) of the same substance?
A: marked improvement

Q: And the “Longitudinal Role Emotional and MCS scores vs placebo” value (by week 36 of treatment)?
A: comparable between the two groups

Q: What about the “Role Emotional scores difference, LJP 394 versus placebo” value (patients with data pre- and post-renal flares) of the same substance?
A: 20.2 points

Q: And the “Pre-flare difference between treatment groups in MCS summary score” value [9]?
A: 4.1 points

Q: What about the “Pre-flare difference between treatment groups in Role Emotional score” value [9] of the same substance?
A: 15.0 points

Q: And the “Pre-flare difference between treatment groups in Vitality score” value [9]?
A: 9.5 points

Q: And the “Post-flare difference in Role Emotional scores favoring active treatment” value (patients with documented renal flare, post-flare)?
A: 37.7 points
